{"source": "patent US20240009149A1", "about": "“NON-AQUEOUS GEL COMPOSITION” (Acousia Therapeutics GmbH, priority 2020, published 2024)", "format_in_all_cases": "physicochemical", "key": {"[1]": {"test": "solubility in water at room temperature", "conditions": "for Biopharmaceutics Classification System class: classified from low water solubility; for solubility: water, 24 °C, 22-26° C."}, "[2]": {"test": "Particle Size Distribution (Malvern MasterSizer, laser diffraction)", "description": "The mean particle size distribution is preferably obtained by laser diffraction. During a laser diffraction measurement a laser beam passes through a dispersed particulate sample and the angular variation in intensity of the scattered light is measured. Large particles scatter light at small angles relative to the laser beam and small particles scatter light at large angles. The angular scattering intensity data is then analyzed to calculate the size of the particles that created the scattering pattern using the Mie theory of light scattering. The particle size is reported as a volume equivalent sphere diameter. The folded optical design in the Mastersizer 3000 (from Malvern Panalytical), which was in particular used for the measurements provides a particle size measurement range from 10 nm up to 3.5 mm using a single optical measurement path. The Mastersizer 3000 uses a sequential combination of measurements with red and blue light sources to measure across the entire particle size range.\nIn some embodiments, the PSD (Particle Size Distribution) of the pharmaceutically active agent was measured with a Malvern MasterSizer 2000 or 3000 (in water as dispersion medium, stirrer speed 1500 rpm, Mie presentation) to give the following results (table 11). […] Some of the grinded batches are reported with the full PSD profile in FIG. 5: […]"}, "[3]": {"test": "impurity profile by HPLC prior and after gamma irradiation"}, "[4]": {"conditions": "FIG. 5 lower illustration, micronized sample, jet mill"}, "[5]": {"conditions": "FIG. 5 middle illustration, manual grinded sample"}, "[6]": {"conditions": "FIG. 5 upper illustration, manual grinded sample"}, "[7]": {"conditions": "Gamma irradiated at 49.6 KGy under dry ice"}}, "data": [{"smiles": "O=C(NCc1cccc(S(F)(F)(F)(F)F)c1)[C@H]1C[C@@H]2CC[C@H]1C2", "note": "(racemic) [Compound A, (1SR,2SR,4RS)-N-(3-(pentafluoro-λ6-sulfanyl)benzyl)bicyclo[2.2.1]heptane-2-carboxamide]", "values": [{"measurement": "Biopharmaceutics Classification System class", "setting": "[1]", "value": "BCS class II"}, {"measurement": "solubility", "setting": "[1]", "value": "< 1000", "unit": "µg/mL"}]}, {"smiles": "O=C(NCc1cccc(S(F)(F)(F)(F)F)c1)[C@H]1C[C@@H]2CC[C@H]1C2", "note": "[Compound B, (1S,2S,4R)-N-(3-(pentafluoro-λ6-sulfaneyl)benzyl)bicyclo[2.2.1]heptane-2-carboxamide]", "values": [{"measurement": "Biopharmaceutics Classification System class", "setting": "[1]", "value": "BCS class II"}, {"measurement": "solubility", "setting": "[1]", "value": "< 1000", "unit": "µg/mL"}, {"measurement": "d10", "setting": "[2]; [4]", "value": 3.4, "unit": "microns"}, {"measurement": "d50", "setting": "[2]; [4]", "value": 12.4, "unit": "microns"}, {"measurement": "d90", "setting": "[2]; [4]", "value": 26.3, "unit": "microns"}, {"measurement": "d10", "setting": "[2]; [5]", "value": 6.5, "unit": "microns"}, {"measurement": "d50", "setting": "[2]; [5]", "value": 32, "unit": "microns"}, {"measurement": "d90", "setting": "[2]; [5]", "value": 72, "unit": "microns"}, {"measurement": "d10", "setting": "[2]; [6]", "value": 4.4, "unit": "microns"}, {"measurement": "d50", "setting": "[2]; [6]", "value": 18, "unit": "microns"}, {"measurement": "d90", "setting": "[2]; [6]", "value": 44, "unit": "microns"}, {"measurement": "PSD of the active ingredient in the non-aqueous gel composition", "setting": "[2]; in the gel versus after grinding", "value": "remained unchanged"}, {"measurement": "*Imp. 8. rel.tR = 0.95", "setting": "[3]; Gamma irradiated at 49.6 KGy", "value": 3.29, "unit": "Area %"}, {"measurement": "Imp. 1. rel.tR = 0.22", "setting": "[3]; Gamma irradiated at 49.6 KGy", "value": 0.11, "unit": "Area %"}, {"measurement": "Imp. 2. rel.tR = 0.37", "setting": "[3]; Gamma irradiated at 49.6 KGy", "value": 0.11, "unit": "Area %"}, {"measurement": "Imp. 3. rel.tR = 0.48", "setting": "[3]; Gamma irradiated at 49.6 KGy", "value": 0.24, "unit": "Area %"}, {"measurement": "Imp. 4. rel.tR = 0.52", "setting": "[3]; Gamma irradiated at 49.6 KGy", "value": 0.12, "unit": "Area %"}, {"measurement": "Imp. 5. rel.tR = 0.54", "setting": "[3]; Gamma irradiated at 49.6 KGy", "value": 0.08, "unit": "Area %"}, {"measurement": "Imp. 6. rel.tR = 0.58", "setting": "[3]; Gamma irradiated at 49.6 KGy", "value": 0.14, "unit": "Area %"}, {"measurement": "Imp. 7. rel.tR = 0.71", "setting": "[3]; Gamma irradiated at 49.6 KGy", "value": 0.39, "unit": "Area %"}, {"measurement": "Imp. 9. rel.tR = 1.27", "setting": "[3]; Gamma irradiated at 49.6 KGy", "value": 0.32, "unit": "Area %"}, {"measurement": "Imp. 10. rel.tR = 1.80", "setting": "[3]; Gamma irradiated at 49.6 KGy", "value": 0.06, "unit": "Area %"}, {"measurement": "Sum of impurities", "setting": "[3]; Gamma irradiated at 49.6 KGy", "value": 4.86, "unit": "Area %"}, {"measurement": "impurity Increase compared to initial", "setting": "[3]; Gamma irradiated at 49.6 KGy", "value": "+1.25 Area %"}, {"measurement": "*Imp. 8. rel.tR = 0.95", "setting": "[3]; [7]", "value": 3.35, "unit": "Area %"}, {"measurement": "Imp. 1. rel.tR = 0.22", "setting": "[3]; [7]", "value": 0.23, "unit": "Area %"}, {"measurement": "Imp. 2. rel.tR = 0.37", "setting": "[3]; [7]", "value": 0.03, "unit": "Area %"}, {"measurement": "Imp. 3. rel.tR = 0.48", "setting": "[3]; [7]", "value": 0.12, "unit": "Area %"}, {"measurement": "Imp. 4. rel.tR = 0.52", "setting": "[3]; [7]", "value": 0.12, "unit": "Area %"}, {"measurement": "Imp. 5. rel.tR = 0.54", "setting": "[3]; [7]", "value": 0.05, "unit": "Area %"}, {"measurement": "Imp. 6. rel.tR = 0.58", "setting": "[3]; [7]", "value": 0.15, "unit": "Area %"}, {"measurement": "Imp. 7. rel.tR = 0.71", "setting": "[3]; [7]", "value": 0.34, "unit": "Area %"}, {"measurement": "Imp. 9. rel.tR = 1.27", "setting": "[3]; [7]", "value": 0.20, "unit": "Area %"}, {"measurement": "Sum of impurities", "setting": "[3]; [7]", "value": 4.59, "unit": "Area %"}, {"measurement": "impurity Increase compared to initial", "setting": "[3]; [7]", "value": "+0.98 Area %"}, {"measurement": "*Imp. 8. rel.tR = 0.95", "setting": "[3]; Initial API", "value": 3.48, "unit": "Area %"}, {"measurement": "Imp. 3. rel.tR = 0.48", "setting": "[3]; Initial API", "value": 0.13, "unit": "Area %"}, {"measurement": "Imp. 4. rel.tR = 0.52", "setting": "[3]; Initial API", "value": "<0.05", "unit": "Area %"}, {"measurement": "Imp. 7. rel.tR = 0.71", "setting": "[3]; Initial API", "value": "<0.05", "unit": "Area %"}, {"measurement": "Sum of impurities", "setting": "[3]; Initial API", "value": 3.61, "unit": "Area %"}, {"measurement": "effect of gamma irradiation on the quality of the active ingredient", "setting": "[3]; standard conditions, dry ice used for cooling", "value": "only minor effects"}]}]}
